Laboratory results reported in ChEMBL document CHEMBL5223141, “New cycloalkyl[b]thiophenylnicotinamide-based α-glucosidase inhibitors as promising anti-diabetic agents: Synthesis, in silico study, in vitro and in vivo evaluations” (Bioorg Med Chem Lett, 2023).
Calls of active or inactive are those of the source. The calls are words filed in the database; no cut-off is given here.

Experiments:
[1] = target: Maltase-glucoamylase (Homo sapiens) (UniProt O43451); test: Inhibition of alpha-glucosidase (unknown origin) at 100 uM relative to control
Sequence of Maltase-glucoamylase (Homo sapiens) (O43451 whole entry, looked up): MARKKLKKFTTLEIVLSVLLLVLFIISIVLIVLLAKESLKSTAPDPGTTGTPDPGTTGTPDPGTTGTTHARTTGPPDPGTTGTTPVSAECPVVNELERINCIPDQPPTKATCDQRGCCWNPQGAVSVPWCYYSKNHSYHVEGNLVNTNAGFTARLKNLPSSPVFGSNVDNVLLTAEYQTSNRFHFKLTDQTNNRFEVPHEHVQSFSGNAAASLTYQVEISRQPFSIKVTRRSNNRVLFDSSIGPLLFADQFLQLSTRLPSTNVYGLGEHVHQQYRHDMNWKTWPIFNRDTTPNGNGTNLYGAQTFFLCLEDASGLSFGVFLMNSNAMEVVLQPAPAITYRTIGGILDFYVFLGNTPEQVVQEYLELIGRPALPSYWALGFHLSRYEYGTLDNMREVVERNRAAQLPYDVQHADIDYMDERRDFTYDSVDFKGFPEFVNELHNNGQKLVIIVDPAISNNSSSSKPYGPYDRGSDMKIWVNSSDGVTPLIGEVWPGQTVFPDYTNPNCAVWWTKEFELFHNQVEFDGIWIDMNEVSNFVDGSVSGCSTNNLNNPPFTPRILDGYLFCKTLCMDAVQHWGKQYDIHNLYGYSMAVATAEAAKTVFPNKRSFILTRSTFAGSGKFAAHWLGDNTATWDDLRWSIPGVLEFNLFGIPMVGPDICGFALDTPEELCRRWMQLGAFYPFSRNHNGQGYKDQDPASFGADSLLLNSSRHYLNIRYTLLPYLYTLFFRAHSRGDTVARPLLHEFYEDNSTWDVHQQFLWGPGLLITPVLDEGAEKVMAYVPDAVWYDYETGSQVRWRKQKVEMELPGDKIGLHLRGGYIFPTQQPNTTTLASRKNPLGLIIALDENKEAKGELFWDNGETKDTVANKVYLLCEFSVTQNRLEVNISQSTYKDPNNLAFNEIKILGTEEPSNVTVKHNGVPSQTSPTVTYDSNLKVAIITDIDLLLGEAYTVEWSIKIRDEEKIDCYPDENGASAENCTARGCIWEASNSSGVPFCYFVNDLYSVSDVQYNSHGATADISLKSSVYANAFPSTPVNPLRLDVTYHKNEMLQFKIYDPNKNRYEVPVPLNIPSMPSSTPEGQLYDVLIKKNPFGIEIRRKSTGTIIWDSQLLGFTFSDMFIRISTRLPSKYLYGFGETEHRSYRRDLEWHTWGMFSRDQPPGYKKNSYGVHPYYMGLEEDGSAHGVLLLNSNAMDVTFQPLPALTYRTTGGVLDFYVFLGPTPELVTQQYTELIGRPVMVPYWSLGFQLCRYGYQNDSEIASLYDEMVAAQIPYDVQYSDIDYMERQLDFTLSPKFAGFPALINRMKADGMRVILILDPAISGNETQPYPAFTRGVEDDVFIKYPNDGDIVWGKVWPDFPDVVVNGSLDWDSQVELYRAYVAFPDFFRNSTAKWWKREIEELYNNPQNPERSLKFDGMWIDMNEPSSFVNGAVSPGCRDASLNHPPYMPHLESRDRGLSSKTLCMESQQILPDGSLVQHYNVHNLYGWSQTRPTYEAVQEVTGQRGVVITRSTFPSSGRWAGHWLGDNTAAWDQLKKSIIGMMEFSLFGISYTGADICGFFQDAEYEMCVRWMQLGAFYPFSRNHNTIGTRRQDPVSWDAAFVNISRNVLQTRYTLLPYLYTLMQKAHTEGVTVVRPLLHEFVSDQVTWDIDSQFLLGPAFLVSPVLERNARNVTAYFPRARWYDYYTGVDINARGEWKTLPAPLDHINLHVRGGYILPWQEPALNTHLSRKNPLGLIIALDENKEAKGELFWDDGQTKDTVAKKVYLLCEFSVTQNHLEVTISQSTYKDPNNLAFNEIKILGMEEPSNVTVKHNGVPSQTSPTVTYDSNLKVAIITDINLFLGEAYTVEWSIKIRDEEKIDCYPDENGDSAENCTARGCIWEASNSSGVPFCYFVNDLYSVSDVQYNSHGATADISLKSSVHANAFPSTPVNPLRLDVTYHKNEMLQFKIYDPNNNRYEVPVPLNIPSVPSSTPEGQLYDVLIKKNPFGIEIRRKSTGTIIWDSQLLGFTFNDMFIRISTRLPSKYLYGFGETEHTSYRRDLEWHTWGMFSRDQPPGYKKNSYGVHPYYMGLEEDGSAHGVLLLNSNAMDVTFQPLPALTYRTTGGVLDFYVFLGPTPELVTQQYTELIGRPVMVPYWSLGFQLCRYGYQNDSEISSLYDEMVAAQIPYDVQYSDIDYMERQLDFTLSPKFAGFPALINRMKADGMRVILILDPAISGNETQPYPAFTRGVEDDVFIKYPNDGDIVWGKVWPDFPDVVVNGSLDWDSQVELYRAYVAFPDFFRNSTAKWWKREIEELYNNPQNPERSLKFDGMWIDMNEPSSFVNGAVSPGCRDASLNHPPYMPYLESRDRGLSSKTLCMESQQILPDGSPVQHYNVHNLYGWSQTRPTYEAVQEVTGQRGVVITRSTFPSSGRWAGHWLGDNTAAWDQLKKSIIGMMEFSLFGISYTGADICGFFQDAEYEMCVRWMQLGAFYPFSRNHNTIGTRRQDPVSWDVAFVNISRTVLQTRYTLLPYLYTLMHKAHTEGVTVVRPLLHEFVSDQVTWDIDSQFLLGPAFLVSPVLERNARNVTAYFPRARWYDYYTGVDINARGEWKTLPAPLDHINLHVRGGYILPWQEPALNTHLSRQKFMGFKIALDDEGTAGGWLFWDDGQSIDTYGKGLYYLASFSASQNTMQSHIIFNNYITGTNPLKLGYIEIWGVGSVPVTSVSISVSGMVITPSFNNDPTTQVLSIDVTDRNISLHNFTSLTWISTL

HepG2 = test: Cytotoxicity against human HepG2 cells at 100 uM by MTT assay; format: toxicity, cell-based; conditions: hepg2, 100 µM
L02 = test: Cytotoxicity against human L02 cells at 100 uM by MTT assay; format: toxicity, cell-based; conditions: l02, 100 µM
Alpha amylase = target: T1, Alpha amylase (Homo sapiens, UniProt P0DUB6); test: Inhibition of alpha-amylase (unknown origin)
T1 sequence (P0DUB6 whole entry): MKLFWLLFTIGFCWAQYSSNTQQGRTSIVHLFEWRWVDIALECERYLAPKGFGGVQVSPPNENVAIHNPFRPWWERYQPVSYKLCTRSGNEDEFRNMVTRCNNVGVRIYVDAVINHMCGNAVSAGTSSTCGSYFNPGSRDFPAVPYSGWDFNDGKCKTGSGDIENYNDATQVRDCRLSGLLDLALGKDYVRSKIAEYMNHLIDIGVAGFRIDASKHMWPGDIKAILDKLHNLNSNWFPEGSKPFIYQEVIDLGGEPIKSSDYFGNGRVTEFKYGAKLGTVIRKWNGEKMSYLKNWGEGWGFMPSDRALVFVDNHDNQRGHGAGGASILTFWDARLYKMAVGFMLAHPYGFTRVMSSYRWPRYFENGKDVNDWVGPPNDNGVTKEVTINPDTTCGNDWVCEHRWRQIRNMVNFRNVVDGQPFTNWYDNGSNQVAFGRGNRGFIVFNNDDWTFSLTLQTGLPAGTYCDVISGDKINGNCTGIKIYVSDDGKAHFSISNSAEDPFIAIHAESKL

Homo sapiens = organism: Homo sapiens; test: Selectivity ratio of IC50 for alpha-amylase (unknown origin) to IC50 for alpha-glucosidase (unknown origin)
[2] = target: Maltase-glucoamylase (Homo sapiens) (UniProt O43451); test: Inhibition of alpha-glucosidase (unknown origin) assessed as increase in intrinsic fluorescence emission; conditions: dose 0-100 µM
[3] = target: Maltase-glucoamylase (Homo sapiens) (UniProt O43451); test: Mixed type inhibition of alpha-glucosidase (unknown origin) assessed as decrease in Vmax by measuring increase in slope using pNPG as substrate at upto 25 uM by Lineweaver-Burk plot analysis
[4] = target: Maltase-glucoamylase (Homo sapiens) (UniProt O43451); test: Mixed type inhibition of alpha-glucosidase (unknown origin) assessed as increase in Km by measuring increase in intercept using pNPG as substrate at upto 25 uM by Lineweaver-Burk plot analysis
Rattus norvegicus [5] = test: Anti-hyperglycemic activity in sucrose loaded Sprague-Dawley rat assessed as blood glucose level at 5 mg/kg, po measured at 30 mins by oral sucrose tolerance test (reference value: 10.80+/-0.92 mmol/L); format: functional; conditions: 0.5 h
Rattus norvegicus [6] = test: Anti-hyperglycemic activity in sucrose loaded Sprague-Dawley rat assessed as decrease in blood glucose level at 5 mg/kg, po measured after 45 mins by oral sucrose tolerance test; format: functional; conditions: 0.75 h

inhibition [1] | Compound | Activity (HepG2) | Activity (L02) | also measured
21.9% | COC(=O)c1ccc(CNC(=O)c2c(NC(=O)c3cccnc3)sc3c2CCC3)cc1 | Non-Toxic | Non-Toxic | 
26.8% | O=C(Nc1sc2c(c1C(=O)NCc1ccccn1)CCCCC2)c1cccnc1 |  |  | 
62.7% | O=C(Nc1sc2c(c1C(=O)NCc1cccnc1)CCCC2)c1cccnc1 | Non-Toxic | Non-Toxic | IC50 (Alpha amylase): 48.1 µM; Ratio IC50 (Homo sapiens): 0.9
29.1% | COc1cc2c(cc1OC)CN(C(=O)c1c(NC(=O)c3cccnc3)sc3c1CCCCC3)CC2 |  |  | 
12.5% | O=C(Nc1sc2c(c1C(=O)NCc1cccnc1)CCC2)c1cccnc1 | Non-Toxic | Non-Toxic | 
59% | O=C(Nc1sc2c(c1C(=O)NCc1ccccc1)CCCCC2)c1cccnc1 |  |  | 
93.6% | COc1cc(CNC(=O)c2c(NC(=O)c3cccnc3)sc3c2CCCC3)ccc1O | Non-Toxic | Non-Toxic | IC50 (Alpha amylase): 72.9 µM; Ratio IC50 (Homo sapiens): 7.4; Activity [2]: Dose-Dependent Effect; Activity [3]: Active; Activity [4]: Active; Activity (Rattus norvegicus [5]): 9.73 mmol/L; Activity (Rattus norvegicus [6]): 9.9 mmol/L
64.4% | O=C(Nc1sc2c(c1C(=O)NCc1ccccc1)CCCC2)c1cccnc1 | Non-Toxic | Non-Toxic | IC50 (Alpha amylase): 76.1 µM; Ratio IC50 (Homo sapiens): 1.7
9.2% | O=C(Nc1sc2c(c1C(=O)NCc1ccncc1)CCCCC2)c1cccnc1 |  |  | 
 | C[C@H]1O[C@H](O[C@H]2[C@H](O)[C@@H](O)[C@@H](O[C@H]3[C@H](O)[C@@H](O)C(O)O[C@@H]3CO)O[C@@H]2CO)[C@H](O)[C@@H](O)[C@@H]1N[C@H]1C=C(CO)[C@@H](O)[C@H](O)[C@H]1O (stereo partly drawn) [ACARBOSE] | Non-Toxic | Non-Toxic | Activity (Rattus norvegicus [5]): 9.57 mmol/L; Activity (Rattus norvegicus [6]): 9.89 mmol/L
1.1% | O=C(Nc1sc2c(c1C(=O)NCc1ccncc1)CCC2)c1cccnc1 | Non-Toxic | Non-Toxic | 
81.7% | COc1cc(CNC(=O)c2c(NC(=O)c3cccnc3)sc3c2CCCCC3)ccc1O |  |  | 
44.1% | O=C(Nc1sc2c(c1C(=O)NCc1ccncc1)CCCC2)c1cccnc1 |  |  | 
44.1% | COc1ccc(CNC(=O)c2c(NC(=O)c3cccnc3)sc3c2CCCCC3)cc1 |  |  | 
58.2% | COC(=O)c1ccc(CNC(=O)c2c(NC(=O)c3cccnc3)sc3c2CCCC3)cc1 | Non-Toxic | Non-Toxic | IC50 (Alpha amylase): 66.9 µM; Ratio IC50 (Homo sapiens): 0.8
26.5% | O=C(Nc1sc2c(c1C(=O)NCc1cccnc1)CCCCC2)c1cccnc1 |  |  | 
18.1% | COC(=O)c1ccc(CNC(=O)c2c(NC(=O)c3cccnc3)sc3c2CCCCC3)cc1 |  |  | 
42.2% | COc1cc2c(cc1OC)CN(C(=O)c1c(NC(=O)c3cccnc3)sc3c1CCCC3)CC2 |  |  | 
56.6% | O=C(Nc1sc2c(c1C(=O)NCc1ccccc1)CCC2)c1cccnc1 | Non-Toxic | Non-Toxic | 
50.6% | COc1cc(CNC(=O)c2c(NC(=O)c3cccnc3)sc3c2CCC3)ccc1O | Non-Toxic | Non-Toxic | 
23.2% | COc1cc2c(cc1OC)CN(C(=O)c1c(NC(=O)c3cccnc3)sc3c1CCC3)CC2 | Non-Toxic | Non-Toxic | 
78.1% | COc1ccc(CNC(=O)c2c(NC(=O)c3cccnc3)sc3c2CCCC3)cc1 | Non-Toxic | Non-Toxic | IC50 (Alpha amylase): 80.4 µM; Ratio IC50 (Homo sapiens): 2.7
55.4% | COc1ccc(CNC(=O)c2c(NC(=O)c3cccnc3)sc3c2CCC3)cc1 | Non-Toxic | Non-Toxic | 
57.2% | O=C(Nc1sc2c(c1C(=O)NCc1ccccn1)CCCC2)c1cccnc1 | Non-Toxic | Non-Toxic | IC50 (Alpha amylase): 94.8 µM; Ratio IC50 (Homo sapiens): 1.5
30.5% | O=C(Nc1sc2c(c1C(=O)NCc1ccccn1)CCC2)c1cccnc1 | Non-Toxic | Non-Toxic | 
